Positions count from the first letter of the chain named. pEC50: −log10 of the molar value.
Legend:
[1] = target: T1, OCT2 variant K432Q (Homo sapiens, UniProt O15244, K432Q/S270A); assay: Specific uptake into HEK-293 cells transfected with OCT2 variant K432Q
T1 sequence (O15244 1-555 S270A/K432Q): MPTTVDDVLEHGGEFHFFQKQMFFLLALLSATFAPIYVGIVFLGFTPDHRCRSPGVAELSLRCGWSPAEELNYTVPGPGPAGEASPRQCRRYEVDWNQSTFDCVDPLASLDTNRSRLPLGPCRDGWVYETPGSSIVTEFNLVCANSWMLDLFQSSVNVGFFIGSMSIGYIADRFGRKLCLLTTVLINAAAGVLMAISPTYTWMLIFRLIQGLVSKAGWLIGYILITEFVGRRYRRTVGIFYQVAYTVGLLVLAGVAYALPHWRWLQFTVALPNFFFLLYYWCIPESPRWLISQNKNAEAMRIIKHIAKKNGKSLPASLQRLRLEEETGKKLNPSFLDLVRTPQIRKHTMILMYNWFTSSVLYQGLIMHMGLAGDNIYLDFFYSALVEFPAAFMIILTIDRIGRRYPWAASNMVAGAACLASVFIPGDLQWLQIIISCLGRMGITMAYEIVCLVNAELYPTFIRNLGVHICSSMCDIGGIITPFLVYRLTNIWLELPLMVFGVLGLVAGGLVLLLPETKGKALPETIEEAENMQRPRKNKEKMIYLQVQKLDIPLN
Description: (§1) The cDNAs encoding the organic cation transporters OCT1 (GenBank accession no. NM_003057), OCT2 (NM_003058), and EMT (NM_021977) were amplified by RT-PCR from human liver, kidney, and placenta total RNA respectively, and subcloned into the eukaryotic expression vector pcDNA3. The cDNA encoding the norepinephrine transporter (SLC6A2) was kindly provided by C. Pifl (University of Vienna).
(§2) For uptake experiments, cells were grown on polystyrene dishes of 60 mm diameter to at least 80% confluence. […] Cells were lysed with 1 ml of 4 mmol/l perchloric acid and lysates subjected to LC-MS-MS quantification. Cellular protein content was determined after solubilization of perchloric acid precipitates with 1 ml of […] NaOH using the bicinchoninic assay (BCA Protein Assay Kit, Pierce).
(§3) Chromatographic separations were performed on Hypercarb (5 µm, 50×2.1 mm; Thermo Electron), Aquasil C18 (3 µm, 100×4.6 mm; Thermo Electron), or Hilic columns (5 µm, 100×3.0 mm; Waters Atlantis) by isocratic or gradient elution using 0.1% aqueous formic acid (A) and acetonitrile or methanol (B) as solvent system. For quantification, SRM transitions of a precursor ion [M+H]^+ into a specific fragment ion (peak area ratios relative to IS) were recorded in positive ESI mode at 1.0–1.5 mTorr collision pressure and 10–40 eV collision energy. […]

[2] = system: SH-SY5Y cells; assay: MTT reduction cell viability assay, SH-SY5Y cells; type: cell-based, human
Description: (§4) Cell viability was assessed in HEK-293 cells, human dopaminergic neuroblastoma cells (SH-SY5Y) and human glioblastoma cells (HTZ-146) by the MTT test as described.[22] […] For indication of metabolic activity, cells were treated with MTT reagent (15 µl of 1 mg/ml stock solution per well) for 1 h, and after drying of culture plates for 1 h at 37°C, the resulting formazan dye was extracted with isopropanol/HCl (100 µl 0.04 mol/l per well) and absorbance was determined spectrophotometrically at 568 nm. Results were in agreement with the data obtained by the tryptan blue exclusion method (data not shown).

[3] = target: T2, OCT2 variant M165I (Homo sapiens, UniProt O15244, M165I/S270A); assay: Specific uptake into HEK-293 cells transfected with OCT2 variant M165I
T2 sequence (O15244 1-555 M165I/S270A): T1 sequence (O15244 1-555 S270A/K432Q) with M165I, Q432K
Description: as §1, §2, §3

[4] = system: HEK-293 cells expressing empty vector; assay: MTT reduction cell viability assay, empty vector transfected HEK-293 cells; type: cell-based, human
Description: as §4

[5] = incubation with 10 µmol/l, mean (s.e.m.)

SMILES	Km at 1 min ([1]; human, pH 7.4)	pEC50 ([2]; Homo sapiens, SH-SY5Y, 48 h, non-pretreated, read-out: EC50 (95% confidence interval), cell viability)	Km at 1 min ([3]; human, pH 7.4)	pEC50 ([4]; Homo sapiens, HEK293, 48 h exposure, no pretreatment, read-out: EC50 (95% confidence interval), cell viability)	Clin [1, 5]	effect on glutamate-induced cytotoxicity ([2]; pre-treated 1 h with 10 µmol/l cyclo(his-pro))	Clin [3, 5]	effect of pretreatment on salsolinol-induced degeneration ([4]; cyclo(his-pro) 10 µmol/l, 12 h prior to salsolinol treatment)
CC1NCCc2cc(O)c(O)cc21 (centres unmarked) [salsolinol]	129 µM	4.31	127 µM	2.95	–	–	–	–
O=C1NC(Cc2c[nH]cn2)C(=O)N2CCCC12 (centres unmarked) [cyclo(his-pro), histidyl-proline diketopiperazine]	–	–	–	–	26.0 (4.3) µl/mg/min	prevented	24.8 (3.7) µl/mg/min	had no effect

Reference: PMC1851987, “Identification of the Endogenous Key Substrates of the Human Organic Cation Transporter OCT2 and Their Implication in Function of Dopaminergic Neurons” (PLoS ONE, 2007)
